From PMC5423974 (European Journal of Clinical Pharmacology, 2017)
Where “and” joins values, the source holds several entries; their conditions need not be identical. Equal values may be shown once. Read-outs that look alike come from different tables or passages of the source. Marks after values point to notes of the source that are not given here.

What was measured:
[1] = Safety and tolerability in Study 86 (Asian study); assay type: in vivo, human
Source text: Safety and tolerability findings obtained from Study 86 were summarized and compared descriptively to the safety and tolerability findings from the studies in Western subjects. Additional safety and tolerability data for the Western studies are reported in detail elsewhere and include references.

[2] = test system: cytochrome P450 2C19 (CYP2C19); parameters: method as in earlier work; conditions: ref 1 Report nos. Be000021–21 and D6244 KMN036, data on file, AstraZeneca; cited from earlier work
[3] = Dose-exposure proportionality of AUC and Cmax (Power model, scatter plots); assay type: in vivo, human
Protocol: Dose-exposure proportionality for AUC and Cmax was assessed for non-Japanese Asian subjects using data from Study 86, and for the pooled analysis Western group by applying the Power model to data from the pooled analysis: Log(Y) = α + β•log(Dose) + ε, where Y = AUC or Cmax. Intercept and slope estimates (including point estimate, standard error, and 90% confidence interval [CI]) were provided for each parameter, and dose proportionality plots were generated for AUC and Cmax. All statistical analyses were performed using SAS version 9.2.

[4] = test system: Breast Cancer Resistance Protein (BCRP); parameters: method as in earlier work; conditions: ref 1 Report nos. Be000021–21 and D6244 KMN036, data on file, AstraZeneca; cited from earlier work
[5] = test system: UDP glucuronosyltransferase family 1 member A1 (UGT1A1); parameters: method as in earlier work; conditions: ref 1 Report nos. Be000021–21 and D6244 KMN036, data on file, AstraZeneca; cited from earlier work
[6] = Pooled analysis of non-compartmental plasma PK of single-dose selumetinib in healthy subjects, by ethnicity; assay type: in vivo, human; conditions: for DN AUC / DN AUC(0–12) / DN Cmax: geometric mean (%CV)
Protocol: All the studies included in the pooled analysis were conducted in accordance with the ethical principles outlined in the Declaration of Helsinki and the International Council on Harmonization Good Clinical Practice. Written informed consent was obtained from all subjects prior to any study-related procedures.
The pooled analysis database was constructed using data collected in 10 studies (Online Resource 1). PK data were taken from Study 86 (Asian study) and Studies 66, 69, 71, 78, 80, 81, 82, 83 and 85 (Western studies), while pharmacogenetic data were obtained from Study 86 (Asian study) and Studies 66 and 83 (Western studies). Informed consent for genetic assessment was as follows: Study 66, 21 of 27 volunteers gave consent (one of these volunteers discontinued treatments); Study 83, all 26 volunteers gave consent; Study 86, 45 of 72 volunteers gave consent.
Further inclusion criteria for the database included fasted subjects dosed with the selumetinib capsule formulation used for Phase III. This meant exclusion of data from other oral formulations used in study 78 and intravenous formulation used in study 80. Data were included solely from study arms where there was an absence of other treatments (e.g. rifampicin, fluconazole) and from subjects with normal renal and hepatic function.
A merged dataset containing subject identifier, non-compartmental PK parameters and demographics was constructed.
The PK parameters AUC, AUC0–12 and Cmax were normalized (abbreviated as DN) for each subject, by dividing the specific PK parameter by the nominal dose (in mg units) and for dose per kg of body weight (abbreviated as DWN) using the following formula: PK parameter value / (nominal dose in mg units / subjects baseline body weight in kg units).
The majority of subjects in the Western studies were of White ethnicity, thus this formed the reference category for comparison. Statistical comparisons of selumetinib PK were undertaken between the following ethnic groups: Western vs All Asian; White vs Black; White vs All Asian; White vs Japanese; White vs non-Japanese Asian; White vs Indian. The comparisons were performed by fitting multivariate models to the PK parameters of interest (e.g. dose-normalized AUC and Cmax), with a stepwise backward selection of the covariates including ethnicity, age, sex, and weight.
Bioanalysis was performed by Covance, USA. […] After addition of deuterated internal standard, samples were extracted by protein precipitation by the addition of 4 volumes of methanol:acetonitrile. After centrifugation, the supernatants were […] to dryness under nitrogen at 50°C and reconstituted in methanol;water before analysis. Extraction recovery was approximately 93%. […] The typical liquid chromatography system was a Prominence SIL-20AC (Shimadzu, Tokyo, Japan). A Phenomenex Luna C18 column was used and maintained at 30°C. A gradient mobile phase system was used with 0.1% formic acid in water (A) or acetonitrile (B) with a flow rate of 0.500 mL/min and the gradient running from 25% B to 65% B over 2 minutes then increasing to 95% B over 0.1 minutes and held for 0.5 minutes before re-equilibration. The mass spectrometer used was an API 5000 or 5500 triple quadruple mass spectrometer (AB Sciex, Foster City, CA, USA). This was run in positive electrospray, multiple reaction monitoring, with an ionspray voltage of 5500 V and TurboIonSpray temperature of 600°C with transitions of 459.0/397.2 monitored.

[7] = Study 86, Asian healthy subjects, 25, 35 and 50 mg
[8] = All Asian (N = 72), healthy subjects, single dose, doses pooled
[9] = All Asian group compared with Western group
[10] = Black (N = 87), healthy subjects, single dose, doses pooled
[11] = Indian (N = 9), healthy subjects, single dose
[12] = Japanese (N = 27), healthy subjects, single dose, doses pooled
[13] = Western (N = 236), healthy subjects, single dose, doses pooled
[14] = White (N = 149), healthy subjects, single dose, doses pooled
[15] = non-Japanese Asian (N = 36), healthy subjects, single dose, doses pooled
[16] = non-Japanese Asian compared to White

Cn1cnc2c(F)c(Nc3ccc(Br)cc3Cl)c(C(=O)NOCCO)cc21 [selumetinib, Selumetinib]
number of AEs reported ([1]; Study 86, Asian healthy subjects): 21 | AE leading to discontinuation of selumetinib [1, 7]: no AE led to the discontinuation | serious adverse event [1, 7]: no subject experienced a serious adverse event | safety or tolerability concerns ([1]; Study 86, Asian healthy subjects, any dose level (25, 35 and 50 mg)): no safety or tolerability concerns | number of AEs deemed related to selumetinib by the Investigator ([1]; Study 86, of the 21 AEs reported): 14 | substrate of enzyme [2]: substrate | dose-exposure proportionality (visual assessment of scatter plots, AUC and Cmax) ([3]; Western group, single doses of 25 to 75 mg): Approximate dose proportionality | dose-exposure proportionality (visual assessment of scatter plots, AUC and Cmax) ([3]; non-Japanese Asian group, 25 to 50 mg): approximate dose proportionality | substrate of transporter protein [4]: substrate | substrate of enzyme [5]: substrate | DN AUC [6, 8]: 79.8 ng.h/mL/mg and 79.8 (23.6) ng.h/mL/mg | DN AUC(0–12) [6, 8]: 61.7 ng.h/mL/mg and 61.7 (24.6) ng.h/mL/mg | DN Cmax [6, 8]: 26.3 (30.9) ng/mL/mg | tmax ([6]; All Asian (N = 72), healthy subjects, single dose, median (min, max)): 1.0 (1, 4) h | percentage by which dose-normalized AUC is higher [6, 9]: 35% | percentage by which dose-normalized Cmax is higher [6, 9]: 39% | dose-normalized selumetinib exposure higher ([6]; Asian subjects compared with Western subjects, single dose 25 to 75 mg): 35–39% | DN AUC [6, 10]: 53.4 ng.h/mL/mg and 53.4 (26.4) ng.h/mL/mg | DN AUC(0–12) [6, 10]: 43.3 ng.h/mL/mg and 43.3 (26.7) ng.h/mL/mg | DN Cmax [6, 10]: 16.9 (39.6) ng/mL/mg | tmax ([6]; Black (N = 87), healthy subjects, single dose, median (min, max)): 1.0 (1, 4) h | DN AUC [6, 11]: 69.5 ng.h/mL/mg and 69.5 (16.7) ng.h/mL/mg | DN AUC(0–12) [6, 11]: 53.5 ng.h/mL/mg and 53.5 (19.6) ng.h/mL/mg | DN Cmax [6, 11]: 28.1 (16.0) ng/mL/mg | tmax ([6]; Indian (N = 9), healthy subjects, single dose, median (min, max)): 1.0 (1, 2) h | percentage increase in geomean dose-normalized AUC ([6]; Indian compared to White): 22% | percentage increase in geomean dose-normalized Cmax ([6]; Indian compared to White): 41% | DN AUC [6, 12]: 84.8 ng.h/mL/mg and 84.8 (21.0) ng.h/mL/mg | DN AUC(0–12) [6, 12]: 65.7 ng.h/mL/mg and 65.7 (24.1) ng.h/mL/mg | DN Cmax [6, 12]: 28.7 (31.0) ng/mL/mg | tmax ([6]; Japanese (N = 27), healthy subjects, single dose, median (min, max)): 1.0 (1, 3) h | percentage increase in geomean dose-normalized AUC ([6]; Japanese compared to White): 51% | percentage increase in geomean dose-normalized Cmax ([6]; Japanese compared to White): 45% | DN AUC ([6]; Western (N = 235), healthy subjects, single dose, doses pooled): 52.4 ng.h/mL/mg and 52.4 (24.9)^‡ ng.h/mL/mg | t1/2 ([6]; Western (N = 235), healthy subjects, single dose, arithmetic mean (SD)): 9.1 (2.91)^‡ h | DN AUC(0–12) [6, 13]: 42.9 ng.h/mL/mg and 42.9 (25.1) ng.h/mL/mg | DN Cmax [6, 13]: 17.4 (35.6) ng/mL/mg | tmax ([6]; Western (N = 236), healthy subjects, single dose, median (min, max)): 1.0 (1, 4) h | DN AUC ([6]; White (N = 148), healthy subjects, single dose, 25-75 mg doses pooled): 51.9 ng.h/mL/mg and 51.9 (23.9)^† ng.h/mL/mg | DN AUC(0–12) [6, 14]: 42.7 ng.h/mL/mg and 42.7 (24.2) ng.h/mL/mg | DN Cmax [6, 14]: 17.7 (33.2) ng/mL/mg | tmax ([6]; White (N = 149), healthy subjects, single dose, median (min, max)): 1.0 (1, 4) h | half-life ([6]; human, plasma, oral, 25 mg, Indian (N = 9), healthy subjects, single dose, arithmetic mean (SD)): 9.5 h | half-life ([6]; human, plasma, oral, All Asian (N = 72), healthy subjects, single dose, arithmetic mean (SD)): 10.4 h | half-life ([6]; human, plasma, oral, Black (N = 87), healthy subjects, single dose, arithmetic mean (SD)): 8.7 h | half-life ([6]; human, plasma, oral, Japanese (N = 27), healthy subjects, single dose, arithmetic mean (SD)): 11.5 h | half-life ([6]; human, plasma, oral, White (N = 148), healthy subjects, single dose, arithmetic mean (SD)): 9.3 h | tmax ([6]; human, plasma, oral, all ethnic groups, read-out: median tmax): 1 to 1.6 h | half-life ([6]; human, plasma, oral, non-Japanese Asian (N = 36), healthy subjects, single dose, arithmetic mean (SD)): 9.8 h | tmax ([6]; human, plasma, oral, non-Japanese Asian (N = 36), healthy subjects, single dose, median (min, max), read-out: tmax): 1.6 h | DN AUC [6, 15]: 78.9 ng.h/mL/mg and 78.9 (25.4) ng.h/mL/mg | DN AUC(0–12) [6, 15]: 61.1 ng.h/mL/mg and 61.1 (24.6) ng.h/mL/mg | DN Cmax [6, 15]: 24.3 (32.3) ng/mL/mg | differences in the geomeans for dose-normalized AUC and dose-normalized Cmax ([6]; non-Japanese Asian and Indian against Japanese): 2 to 18% | percentage increase in geomean dose-normalized AUC [6, 16]: 37% | percentage increase in geomean dose-normalized Cmax [6, 16]: 20%
